Measurements taken from ChEMBL document CHEMBL3991601, “The target landscape of clinical kinase drugs” (Science, 2017).
The source made the active and inactive calls. For most assays here, no stated cut-off is given here; in the data, actives have a measured Kd and inactives only a lower limit.

Experiments:
[1] = molecular target: Tyrosine-protein kinase Lck (Homo sapiens, UniProt P06239)
[2] = molecular target: T1, NUAK family SNF1-like kinase 2 (Homo sapiens, UniProt Q9H093)
T1 sequence (Q9H093 whole entry): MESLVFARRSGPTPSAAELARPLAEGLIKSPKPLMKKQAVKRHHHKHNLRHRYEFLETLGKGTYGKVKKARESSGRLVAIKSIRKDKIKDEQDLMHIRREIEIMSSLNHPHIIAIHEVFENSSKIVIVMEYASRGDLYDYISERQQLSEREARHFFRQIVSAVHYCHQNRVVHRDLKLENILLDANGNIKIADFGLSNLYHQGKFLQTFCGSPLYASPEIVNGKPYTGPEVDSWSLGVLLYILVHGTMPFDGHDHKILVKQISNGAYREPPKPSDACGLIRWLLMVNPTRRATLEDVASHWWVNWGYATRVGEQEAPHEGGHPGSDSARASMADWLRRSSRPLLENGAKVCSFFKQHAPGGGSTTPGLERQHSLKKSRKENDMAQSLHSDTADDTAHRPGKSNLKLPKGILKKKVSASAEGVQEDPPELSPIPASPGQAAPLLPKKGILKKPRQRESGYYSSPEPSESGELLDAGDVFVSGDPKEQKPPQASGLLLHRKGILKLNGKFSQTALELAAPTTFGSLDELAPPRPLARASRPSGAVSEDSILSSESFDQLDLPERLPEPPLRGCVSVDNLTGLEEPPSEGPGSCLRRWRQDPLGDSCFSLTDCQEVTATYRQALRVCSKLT

[3] = molecular target: T2, Ras-related protein Rab-27A (Homo sapiens, UniProt P51159)
T2 sequence (P51159 whole entry): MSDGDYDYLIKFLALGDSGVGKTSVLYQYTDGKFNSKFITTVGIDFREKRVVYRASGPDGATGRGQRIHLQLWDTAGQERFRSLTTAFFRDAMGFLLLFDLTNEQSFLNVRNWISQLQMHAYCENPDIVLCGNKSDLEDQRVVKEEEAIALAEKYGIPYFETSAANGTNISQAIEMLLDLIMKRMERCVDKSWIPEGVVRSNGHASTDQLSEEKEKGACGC

Insulin receptor = Insulin receptor (Homo sapiens, UniProt P06213)
[4] = molecular target: T3, Calcium/calmodulin-dependent protein kinase type IV (Homo sapiens, UniProt Q16566)
T3 sequence (Q16566 whole entry): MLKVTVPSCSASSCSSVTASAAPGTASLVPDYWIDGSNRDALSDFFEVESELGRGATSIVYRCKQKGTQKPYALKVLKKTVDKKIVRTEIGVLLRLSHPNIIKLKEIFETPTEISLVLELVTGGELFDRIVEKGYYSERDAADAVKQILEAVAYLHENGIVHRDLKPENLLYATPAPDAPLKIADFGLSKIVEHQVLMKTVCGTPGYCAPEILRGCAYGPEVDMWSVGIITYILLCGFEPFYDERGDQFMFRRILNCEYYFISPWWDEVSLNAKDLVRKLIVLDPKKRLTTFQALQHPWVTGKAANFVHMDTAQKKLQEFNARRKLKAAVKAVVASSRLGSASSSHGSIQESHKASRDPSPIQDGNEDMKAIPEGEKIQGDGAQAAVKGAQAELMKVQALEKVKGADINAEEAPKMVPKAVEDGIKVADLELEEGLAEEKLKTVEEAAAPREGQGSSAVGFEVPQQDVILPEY

[5] = molecular target: Dual specificity protein kinase CLK2 (Homo sapiens, UniProt P49760)
[6] = molecular target: T4, Uncharacterized protein FLJ45252 (Homo sapiens, UniProt Q6ZSR9); settings: read-out: Kd apparent; k-562, colo 205, sk-n-be(2) and mv-4-11
T4 sequence (Q6ZSR9 whole entry): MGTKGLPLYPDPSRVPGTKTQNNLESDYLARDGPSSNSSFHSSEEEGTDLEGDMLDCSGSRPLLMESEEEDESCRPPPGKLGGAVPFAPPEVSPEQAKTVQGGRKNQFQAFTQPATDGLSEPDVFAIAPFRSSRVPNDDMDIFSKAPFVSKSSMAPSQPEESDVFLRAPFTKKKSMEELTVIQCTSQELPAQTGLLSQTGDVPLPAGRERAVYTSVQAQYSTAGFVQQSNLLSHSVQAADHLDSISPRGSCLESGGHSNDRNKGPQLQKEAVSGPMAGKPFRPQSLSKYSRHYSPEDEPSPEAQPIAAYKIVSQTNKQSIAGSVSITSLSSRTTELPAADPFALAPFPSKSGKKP

[7] = molecular target: Ribosomal protein S6 kinase alpha-3 (Homo sapiens, UniProt P51812)
[8] = molecular target: Cyclin-dependent kinase 7 (Homo sapiens, UniProt P50613)
[9] = molecular target: T5, Peroxisomal acyl-coenzyme A oxidase 1 (Homo sapiens, UniProt Q15067)
T5 sequence (Q15067 whole entry): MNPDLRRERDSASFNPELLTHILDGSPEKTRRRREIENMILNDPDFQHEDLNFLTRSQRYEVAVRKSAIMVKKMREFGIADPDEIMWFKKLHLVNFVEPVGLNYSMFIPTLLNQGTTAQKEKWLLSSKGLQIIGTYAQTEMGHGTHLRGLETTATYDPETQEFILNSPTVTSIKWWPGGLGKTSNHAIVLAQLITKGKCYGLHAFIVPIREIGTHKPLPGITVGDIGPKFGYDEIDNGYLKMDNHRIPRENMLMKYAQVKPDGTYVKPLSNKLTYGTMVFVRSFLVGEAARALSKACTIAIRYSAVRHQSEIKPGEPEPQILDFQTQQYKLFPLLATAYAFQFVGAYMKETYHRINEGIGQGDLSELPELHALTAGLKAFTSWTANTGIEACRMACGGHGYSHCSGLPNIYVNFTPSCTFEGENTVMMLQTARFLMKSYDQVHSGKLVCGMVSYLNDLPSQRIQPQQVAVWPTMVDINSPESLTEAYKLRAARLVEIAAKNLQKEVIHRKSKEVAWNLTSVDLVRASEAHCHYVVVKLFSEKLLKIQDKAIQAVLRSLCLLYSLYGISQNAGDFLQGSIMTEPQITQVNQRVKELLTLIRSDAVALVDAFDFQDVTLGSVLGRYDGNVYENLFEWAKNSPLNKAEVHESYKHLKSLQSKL

Ribosomal protein S6 kinase alpha-3, sequence (P51812 whole entry): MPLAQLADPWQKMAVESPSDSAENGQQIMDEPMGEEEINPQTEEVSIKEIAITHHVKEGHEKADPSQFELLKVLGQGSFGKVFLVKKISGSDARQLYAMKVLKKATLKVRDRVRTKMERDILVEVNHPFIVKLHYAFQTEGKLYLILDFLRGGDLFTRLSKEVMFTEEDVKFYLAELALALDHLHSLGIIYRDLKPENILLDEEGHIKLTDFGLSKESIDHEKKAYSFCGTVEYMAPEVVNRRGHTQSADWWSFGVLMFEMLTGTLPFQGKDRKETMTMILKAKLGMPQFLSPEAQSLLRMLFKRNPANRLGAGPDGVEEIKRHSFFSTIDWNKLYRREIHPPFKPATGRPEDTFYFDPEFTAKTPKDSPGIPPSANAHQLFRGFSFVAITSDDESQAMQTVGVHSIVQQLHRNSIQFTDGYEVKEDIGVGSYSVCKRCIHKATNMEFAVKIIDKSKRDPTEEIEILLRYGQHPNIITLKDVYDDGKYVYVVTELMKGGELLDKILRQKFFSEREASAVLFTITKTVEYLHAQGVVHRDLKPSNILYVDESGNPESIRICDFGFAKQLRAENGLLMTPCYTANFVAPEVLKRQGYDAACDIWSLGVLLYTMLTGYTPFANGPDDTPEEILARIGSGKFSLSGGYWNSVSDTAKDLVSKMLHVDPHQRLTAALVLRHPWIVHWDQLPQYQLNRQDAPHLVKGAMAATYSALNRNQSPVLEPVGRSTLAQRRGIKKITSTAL
Cyclin-dependent kinase 7, sequence (P50613 whole entry): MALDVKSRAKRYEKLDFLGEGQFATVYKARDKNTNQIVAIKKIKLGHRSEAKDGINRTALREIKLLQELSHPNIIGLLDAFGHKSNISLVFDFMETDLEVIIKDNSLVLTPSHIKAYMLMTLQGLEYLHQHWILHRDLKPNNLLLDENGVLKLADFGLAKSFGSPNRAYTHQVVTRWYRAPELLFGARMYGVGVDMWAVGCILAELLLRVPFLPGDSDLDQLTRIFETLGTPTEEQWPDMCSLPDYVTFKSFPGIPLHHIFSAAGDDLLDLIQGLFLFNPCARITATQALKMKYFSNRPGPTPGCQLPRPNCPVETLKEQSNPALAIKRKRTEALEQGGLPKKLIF
Dual specificity protein kinase CLK2, sequence (P49760 whole entry): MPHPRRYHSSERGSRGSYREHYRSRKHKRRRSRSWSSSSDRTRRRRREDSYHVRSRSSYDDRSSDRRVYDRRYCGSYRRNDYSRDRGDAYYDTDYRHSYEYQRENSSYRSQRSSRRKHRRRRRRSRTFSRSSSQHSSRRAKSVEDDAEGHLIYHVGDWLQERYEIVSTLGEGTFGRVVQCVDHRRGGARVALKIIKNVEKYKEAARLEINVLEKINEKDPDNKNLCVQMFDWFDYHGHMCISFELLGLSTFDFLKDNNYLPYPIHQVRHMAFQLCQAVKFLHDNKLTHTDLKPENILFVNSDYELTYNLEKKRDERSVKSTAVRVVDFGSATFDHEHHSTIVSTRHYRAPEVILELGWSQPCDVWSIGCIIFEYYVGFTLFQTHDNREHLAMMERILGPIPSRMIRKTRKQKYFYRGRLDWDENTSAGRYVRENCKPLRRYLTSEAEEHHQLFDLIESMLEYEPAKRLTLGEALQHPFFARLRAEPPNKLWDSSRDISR
Insulin receptor, sequence (P06213 28-758 limits assumed): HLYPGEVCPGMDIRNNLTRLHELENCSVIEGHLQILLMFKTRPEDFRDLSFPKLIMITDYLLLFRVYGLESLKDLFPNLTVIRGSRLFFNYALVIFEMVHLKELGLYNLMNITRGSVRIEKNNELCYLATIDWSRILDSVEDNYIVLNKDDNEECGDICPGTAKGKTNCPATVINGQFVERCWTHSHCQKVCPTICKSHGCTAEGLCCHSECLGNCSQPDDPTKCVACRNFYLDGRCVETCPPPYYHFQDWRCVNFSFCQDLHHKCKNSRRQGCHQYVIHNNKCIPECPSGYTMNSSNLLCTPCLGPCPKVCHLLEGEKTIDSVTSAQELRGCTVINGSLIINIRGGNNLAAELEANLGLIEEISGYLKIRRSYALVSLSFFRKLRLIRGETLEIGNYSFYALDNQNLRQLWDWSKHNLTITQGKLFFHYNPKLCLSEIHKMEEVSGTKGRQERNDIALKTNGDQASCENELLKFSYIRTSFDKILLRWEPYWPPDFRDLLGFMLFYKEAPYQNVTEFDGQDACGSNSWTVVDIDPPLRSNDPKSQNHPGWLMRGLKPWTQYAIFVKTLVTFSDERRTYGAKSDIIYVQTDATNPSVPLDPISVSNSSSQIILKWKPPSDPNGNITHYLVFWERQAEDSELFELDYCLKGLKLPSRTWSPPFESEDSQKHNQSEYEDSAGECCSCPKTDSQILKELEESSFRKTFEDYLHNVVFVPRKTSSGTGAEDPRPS
Insulin receptor, sequence (P06213 763-1382 limits assumed): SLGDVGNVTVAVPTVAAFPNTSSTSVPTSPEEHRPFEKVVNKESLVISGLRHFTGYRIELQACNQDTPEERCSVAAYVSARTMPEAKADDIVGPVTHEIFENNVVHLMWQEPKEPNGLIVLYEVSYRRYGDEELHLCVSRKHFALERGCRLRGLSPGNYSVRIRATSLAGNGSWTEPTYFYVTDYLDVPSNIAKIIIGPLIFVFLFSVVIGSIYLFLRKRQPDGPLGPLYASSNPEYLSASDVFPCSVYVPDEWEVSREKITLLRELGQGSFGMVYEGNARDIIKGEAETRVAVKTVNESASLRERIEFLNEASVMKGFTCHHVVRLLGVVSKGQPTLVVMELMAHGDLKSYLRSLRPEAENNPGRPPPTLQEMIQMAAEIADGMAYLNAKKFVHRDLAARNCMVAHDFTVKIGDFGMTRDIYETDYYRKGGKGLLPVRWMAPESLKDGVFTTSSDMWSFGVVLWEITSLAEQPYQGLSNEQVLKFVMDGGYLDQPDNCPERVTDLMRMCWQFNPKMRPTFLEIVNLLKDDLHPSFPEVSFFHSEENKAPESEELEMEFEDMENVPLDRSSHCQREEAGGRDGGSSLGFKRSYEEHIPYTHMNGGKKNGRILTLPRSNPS
Tyrosine-protein kinase Lck, sequence (P06239 whole entry): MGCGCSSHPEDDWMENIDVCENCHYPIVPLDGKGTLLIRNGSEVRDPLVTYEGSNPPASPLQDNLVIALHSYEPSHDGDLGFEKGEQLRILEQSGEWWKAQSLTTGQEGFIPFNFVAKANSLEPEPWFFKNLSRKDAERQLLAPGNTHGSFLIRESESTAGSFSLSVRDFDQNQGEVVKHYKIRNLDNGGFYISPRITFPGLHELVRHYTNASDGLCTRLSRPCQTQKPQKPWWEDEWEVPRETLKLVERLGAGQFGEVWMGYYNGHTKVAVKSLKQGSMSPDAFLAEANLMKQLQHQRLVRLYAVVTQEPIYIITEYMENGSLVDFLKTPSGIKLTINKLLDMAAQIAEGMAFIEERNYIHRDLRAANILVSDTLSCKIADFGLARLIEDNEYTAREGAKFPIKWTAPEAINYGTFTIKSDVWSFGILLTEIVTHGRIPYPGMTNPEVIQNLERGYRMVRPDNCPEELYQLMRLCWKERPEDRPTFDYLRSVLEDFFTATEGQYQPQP

SMILES	Kd [1]	Kd [2]	Kd [3]	Kd (Insulin receptor)	Kd [4]	Kd [5]	Kd [6]	Kd [7]	Kd [8]	Kd [9]
CC(=O)c1cnc2ccc(-c3cc(Cl)c(O)c(Cl)c3)nc2c1N[C@H]1CC[C@H](CN(C)C)CC1	0.073 µM (active)	> 30 µM (inactive)	> 30 µM (inactive)	> 30 µM (inactive)	> 30 µM (inactive)	> 30 µM (inactive)				
C=CC(=O)N1CCC[C@H](n2c(=O)n(-c3ccc(Oc4ccccc4)cc3)c3c(N)ncnc32)C1	0.005 µM	> 30 µM (inactive)	> 30 µM (inactive)	> 30 µM (inactive)	> 30 µM (inactive)	> 30 µM (inactive)	> 30 µM (inactive)	> 30 µM (inactive)	> 30 µM (inactive)	
Nc1ncnc2c1c(-c1cccc(OCc3ccccc3)c1)cn2[C@H]1C[C@@H](CN2CCC2)C1 [AEW-541]	> 30 µM (inactive)	> 30 µM (inactive)	> 30 µM (inactive)	4.04 µM (active)	> 30 µM (inactive)	> 30 µM (inactive)	> 30 µM (inactive)	> 30 µM (inactive)	> 30 µM (inactive)	
Cc1cc(C(=O)NOCCO)c(Nc2ccc(I)cc2F)n(C)c1=O [AZD-8330]	> 30 µM (inactive)	> 30 µM (inactive)	> 30 µM (inactive)	> 30 µM (inactive)	> 30 µM (inactive)	> 30 µM (inactive)	> 30 µM (inactive)	> 30 µM (inactive)	> 30 µM (inactive)	
COc1cc2ncnc(Oc3cccc(NC(=O)Nc4cc(C(C)(C)C(F)(F)F)on4)c3)c2cc1OC [CEP-32496]		> 30 µM (inactive)	> 30 µM (inactive)		> 30 µM (inactive)	> 30 µM (inactive)	> 30 µM (inactive)	> 30 µM (inactive)	> 30 µM (inactive)	
COCC(=O)NC/C=C/c1ccc2ncnc(Nc3ccc(Oc4ccc(C)nc4)c(C)c3)c2c1 [CP-724714]	> 30 µM (inactive)	> 30 µM (inactive)	> 30 µM (inactive)	> 30 µM (inactive)	> 30 µM (inactive)	> 30 µM (inactive)	> 30 µM (inactive)	> 30 µM (inactive)	> 30 µM (inactive)	
CC(C)(C)c1nc(-c2cccc(NS(=O)(=O)c3c(F)cccc3F)c2F)c(-c2ccnc(N)n2)s1 [DABRAFENIB]	0.783 µM (active)	> 30 µM (inactive)	> 30 µM (inactive)	> 30 µM (inactive)		> 30 µM (inactive)	> 30 µM (inactive)			> 30 µM (inactive)
Cc1nc2cc(-n3ncc(C(=O)c4cc5ccccc5[nH]4)c3N)ccc2[nH]1 [FGFR INHIBITOR DEBIO 1347]	> 30 µM (inactive)	> 30 µM (inactive)	> 30 µM (inactive)	> 30 µM (inactive)		> 30 µM (inactive)	> 30 µM (inactive)	> 30 µM (inactive)	> 30 µM (inactive)	
COc1ccc(S(=O)(=O)N(C(C)=O)c2ccccc2/C=C/c2cc[n+]([O-])cc2)cc1 [HMN-214]	> 30 µM (inactive)	> 30 µM (inactive)	> 30 µM (inactive)	> 30 µM (inactive)	> 30 µM (inactive)	> 30 µM (inactive)	> 30 µM (inactive)	> 30 µM (inactive)	> 30 µM (inactive)	
NC1(c2ccc(-c3nc4ccn5c(=O)[nH]nc5c4cc3-c3ccccc3)cc2)CCC1 [MK-2206]	> 30 µM (inactive)	> 30 µM (inactive)	> 30 µM (inactive)	> 30 µM (inactive)	> 30 µM (inactive)	> 30 µM (inactive)	> 30 µM (inactive)	> 30 µM (inactive)	> 30 µM (inactive)	
COc1ncc(-c2ccc3nccc(-c4ccnnc4)c3c2)cc1NS(=O)(=O)c1ccc(F)cc1F [OMIPALISIB]	> 30 µM (inactive)	> 30 µM (inactive)	> 30 µM (inactive)	> 30 µM (inactive)	> 30 µM (inactive)	> 30 µM (inactive)	> 30 µM (inactive)	> 30 µM (inactive)	> 30 µM (inactive)	
Cc1nc(Nc2n[nH]c3c2CN(C(=O)N[C@H](CN(C)C)c2ccccc2)C3(C)C)c2sccc2n1 [PF-03758309]	> 30 µM (inactive)	> 30 µM (inactive)	> 30 µM (inactive)	> 30 µM (inactive)	0.408 µM (active)	> 30 µM (inactive)	2.72 µM (active)	0.1 µM (active)	0.003 µM (active)	
CO[C@H]1C[C@@H]2CC[C@@H](C)[C@@](O)(O2)C(=O)C(=O)N2CCCC[C@H]2C(=O)O[C@H]([C@H](C)C[C@@H]2CC[C@@H](OP(C)(C)=O)[C@H](OC)C2)CC(=O)[C@H](C)/C=C(\C)[C@@H](O)[C@@H](OC)C(=O)[C@H](C)C[C@H](C)/C=C/C=C/C=C/1C [RIDAFOROLIMUS]	> 30 µM (inactive)	> 30 µM (inactive)	> 30 µM (inactive)	> 30 µM (inactive)	> 30 µM (inactive)	> 30 µM (inactive)	> 30 µM (inactive)	> 30 µM (inactive)	> 30 µM (inactive)	
O=C1NC(=O)[C@@H](c2cn3c4c(cccc24)CCC3)[C@@H]1c1c[nH]c2ccccc12 [TIVANTINIB]	> 30 µM (inactive)		> 30 µM (inactive)	> 30 µM (inactive)	> 30 µM (inactive)	> 30 µM (inactive)	> 30 µM (inactive)	> 30 µM (inactive)	> 30 µM (inactive)	
C[C@@H](NC(=O)c1ncnc(N)c1Cl)c1ncc(C(=O)Nc2cc(C(F)(F)F)c(Cl)cn2)s1 [TOVORAFENIB]	> 30 µM (inactive)		> 30 µM (inactive)	> 30 µM (inactive)	> 30 µM (inactive)	> 30 µM (inactive)	> 30 µM (inactive)	> 30 µM (inactive)	> 30 µM (inactive)	
CN1C/C=C/CCOc2cccc(c2)-c2ccnc(n2)Nc2cccc(c2)C1 [ZOTIRACICLIB]	> 30 µM (inactive)	> 30 µM (inactive)	> 30 µM (inactive)	> 30 µM (inactive)	> 30 µM (inactive)		> 30 µM (inactive)	> 30 µM (inactive)	0.473 µM (active)	> 30 µM (inactive)
